{"source": "patent US20260219274A1", "about": "“POLYOL SWEETNERS AND CARDIOVASCULAR AND THROMBOTIC EVENT RISK” (THE CLEVELAND CLINIC FOUNDATION, priority 2023, published 2026)", "key": {"[1]": {"tested_on": "stable subjects undergoing elective diagnostic cardiac evaluation (Validation / US cohort)", "parameters": "species or system human", "details": "in vivo", "source_text": "Our second clinical study employed an independent non-overlapping Validation Cohort, where we employed quantitative stable isotope dilution liquid chromatography tandem mass spectrometry (LC-MS/MS) to determine xylitol levels in serum samples from 2,149 patients (non-overlapping from GeneBank at the Cleveland Clinic; clinicaltrials.gov identifier: NCT0059020).^35-36\n(§1) In both, the Discovery and Validation Cohorts, Major Adverse Cardiovascular Events (MACE) were defined as death, nonfatal myocardial infarction, or nonfatal cerebrovascular accident (stroke) during follow-up. Adjudicated long term survival data were collected through medical records review and Social Security Death Index query. Cardiovascular disease (CVD) was indicated as presence of peripheral artery disease or coronary artery disease, indicated as any clinical history of myocardial infarction, coronary revascularization (including percutaneous coronary intervention, coronary artery bypass surgery), or angiographic evidence of significant stenosis (≥50%) in 1 or more major coronary arteries. Estimated glomerular filtration rate (eGFR) in both cohorts was calculated based on the recent Chronic Kidney Disease Epidemiology Collaboration 2021 CKD-EPI Creatinine equation.^37 Platelet-related hematology analyses were performed with an Advia 120 hematology analyzer (Siemens, New York, NY).^38 Use of anti-platelet agents (=1556) was defined as either aspirin or a P2Y12 agent or both. All observational studies in this example are reported in compliance with the STrengthening the Reporting of Observational studies in Epidemiology (STROBE)-Statement.^39 Information on gender of study participants of the Discovery and Validation Cohorts is reported in Table 1-3.\nStable-isotope-dilution LC-MS/MS was developed to specifically quantify xylitol in human and mouse plasma, urine and feces (fecal pellets were dissolved in water and supernatant subjected to LC-MS/MS). Accuracy and precision of the method to quantify xylitol (separated from its structural isomers arabitol and rabitol) were assessed by a standard addition method 4 of pure synthetic standard into three different plasma pools. Accuracy was 2.4-2.8%, and intra- and inter-day coefficients of variation (CVs), were 1.2-8.9% and 10.9-11.5%, respectively. Urine creatinine was similarly analyzed by stable-isotope-dilution LC-MS/MS using D3-creatinine as internal standard as previously described.^47 Erythritol was quantified by stable-isotope-dilution LC-MS/MS as previously described.^19 Details for all assays can be found in the additional methods.\nContinuous variables are summarized as median (interquartile range [IQR]), and categorical variables are presented as %. […]"}, "[2]": {"tested_on": "stable subjects undergoing elective diagnostic cardiac evaluations (Discovery Cohort)", "details": "in vivo", "source_text": "Our first study employed a Discovery Cohort, where we used untargeted metabolomics (semi-quantitative analyses) to analyze plasma samples from 1,157 stable subjects to identify circulating analytes whose levels were associated with future development of adverse cardiovascular events over an ensuing 3 year period. The Discovery Cohort included sequential stable patients (ages 18 years or above) undergoing elective diagnostic coronary angiography for risk evaluation at a quaternary referral center between 2001 and 2007 (GeneBank at the Cleveland Clinic; clinicaltrials.gov identifier: NCT00590200) with clinical and longitudinal outcomes.\nas §1\nFor untargeted mass spectrometry analyses, subject plasma samples were derivatized and run on GC-MS analyses as previously described.^19 Raw data files were processed using the metabolomics BinBase database.^45\nContinuous variables are summarized as median (interquartile range [IQR]), and categorical variables are presented as %. Difference between groups (e.g. tertiles or quartiles) were examined using Kruskal Wallis test for continuous variables and chisq (χ^2) test for categorical variables. Kaplan-Meier analysis with Cox proportional-hazards regression was used for time-to-event analysis to determine hazard ratios (HR) and 95% confidence intervals (CI) for incident MACE. Adjustments included traditional cardiovascular risk factors (age, sex, diabetes mellitus, systolic blood pressure, low-density lipoprotein cholesterol levels, high-density lipoprotein cholesterol levels, triglyceride levels, smoking status) and high-sensitivity C-reactive protein (hsCRP). We confirmed that the proportionality hazards assumptions were met using the Schoenfeld residuals against the transformed time. Mann-Whitney U-test or Wilcoxon matched-pairs signed rank test were applied to continuous variables to examine differences between 2 groups. Kruskal-Wallis test with Dunn's post hoc test was used for pairwise multiple comparisons of ranked data. Two-way ANOVA with Šidák's multiple comparison post hoc test was used for multiple-group comparisons of aggregometry responses using different concentrations of agonists. For analysis of collagen-dependent platelet adhesion in whole blood, a two-way repeated measures ANOVA with Sidák's multiple comparison post hoc test was used. All reported measurements represent distinct samples. Data analyses were performed with R software (version 4.0.2) and GraphPad Prism software (version 9.1.2). A two-sided P<0.05 was considered statistically significant. […]"}}}
{"compound": "OC[C@@H](O)[C@@H](O)CO", "note": "[erythritol]", "values": [{"measurement": "HR [95% CI] incident event risk", "setting": "[1]", "result": "2.64 [1.79-3.90]"}, {"measurement": "HR with 95% CI", "setting": "[1]", "result": "1.21 (1.12-1.31)"}, {"measurement": "adjusted HR [95% CI] incident MACE", "setting": "[1]", "result": "1.80 [1.18-2.77]"}, {"measurement": "HR for MACE", "setting": "[2]", "result": "3.22 [95% CI 1.91-5.41]"}, {"measurement": "HR with 95% CI", "setting": "[2]", "result": "1.31 (1.17-1.46)"}, {"measurement": "adjusted HR for incident MACE", "setting": "[2]", "result": "2.95 [1.70-5.12]"}]}
{"compound": "OC[C@@H](O)[C@H](O)[C@@H](O)CO", "note": "[xylitol]", "values": [{"measurement": "HR [95% CI] for incident (3 year) MACE", "setting": "[1]", "result": "2.31 [1.52-3.52]"}, {"measurement": "adjusted HR [95% CI] for incident (3 year) MACE", "setting": "[2]", "result": "1.64 [1.05-2.56]"}, {"measurement": "hazard ratio (HR) [95% CI] for incident (3 year) MACE", "setting": "[2]", "result": "1.63 [1.04-2.53]"}]}
